Results published in US20090011438A1, “Collagen VI and Cancer” (priority 2004, published 2009).

How the values were obtained:
Type in all cases: cell-based
β-catenin = experiment: Metabolic labeling pulse/chase of β-catenin; conditions: MCF-7 cells, 30 μg/ml, chase 30 min to 2 hrs
Experimental: (§1) FIG. 4 is graphs and a photograph showing that collagen VI stabilizes β-catenin and cyclin D1. […] A TCF/LEF luciferase reporter construct was transfected into MCF-7 cells and luciferase activity was analyzed after treatment either were vehicle (PBS; black bars), collagen VI (30 μg/ml; white bars) or collagen 1 (30 μg/ml; gray bars) in DME-BSA. […] The serum free medium used in the chase contained vehicle, collagen VI (30 μg/ml) or collagen 1 (30 μg/ml). After each time point, immunoprecipitations were performed for β-catenin and analyzed by SDS-PAGE followed by quantitation of β-catenin at each time point. […] MCF-7 cells were exposed for 3 hours to vehicle, human collagen VI (30 μg/ml) or collagen I (30 μg/ml). Cells were then lysed and analyzed for cyclin D1 by western blot analysis. […] Panel D is a photograph of a western blot showing that collagen VI acts in part through NG2 in MCF-7 cells to stabilize cyclin D1. […] Results are shown as the MEAN±SEM in all cases.
Metabolic Labeling for β-catenin. MCF-7 cells, seeded in 6-well plates, were treated in methionine/cysteine deficient DMEM for 1 hour. […]
Collagen VI prevents degradation of endogenous β-catenin in MCF-7 cells. […] To test this, β-catenin levels were monitored over the course of several hours after a pulse/chase reaction. […]

Tcf/Lef = experiment: TOP FLASH (Tcf/Lef) reporter luciferase assay; conditions: MCF-7 cells, 30 μg/ml, 12 hours, vs vehicle
Experimental: as §1
Luciferase Assays. […] Two days prior to the luciferase readout, cells were transiently transfected with the TOPFLASH (contains 4 Tcf/Lef binding elements) luciferase promoter construct as well as a thymidine kinase driven renilla luciferase construct as a transfection control vector (Promega, Madison, Wis.) (Albanese et al., 2003). […]

cyclin D1 = experiment: Cyclin D1 levels by western blot; conditions: MCF-7 cells, treated five hours, vs vehicle
Experimental: FIG. 4 is graphs and a photograph showing that collagen VI stabilizes β-catenin and cyclin D1. […] A TCF/LEF luciferase reporter construct was transfected into MCF-7 cells and luciferase activity was analyzed after treatment either were vehicle (PBS; black bars), collagen VI (30 μg/ml; white bars) or collagen 1 (30 μg/ml; gray bars) in DME-BSA. […] The serum free medium used in the chase contained vehicle, collagen VI (30 μg/ml) or collagen 1 (30 μg/ml). After each time point, immunoprecipitations were performed for β-catenin and analyzed by SDS-PAGE followed by quantitation of β-catenin at each time point. […] Cells were then lysed and analyzed for cyclin D1 by western blot analysis. […] Panel D is a photograph of a western blot showing that collagen VI acts in part through NG2 in MCF-7 cells to stabilize cyclin D1. […] Results are shown as the MEAN±SEM in all cases.
Immunoblotting. Separation of proteins by sodium dodecyl sulfate (SDS)-poly acrylamide gel electrophoresis (PAGE) fluorography, and immunoblotting were performed as previously described (Scherer et al., 1994). […]
Collagen VI increases cyclin D1 protein stability through NG2/CSPG. […] MCF-7 cells pretreated with the αNG2/CSPG antibody were exposed to collagen VI protein, and cyclin D1 levels were monitored. […]

collagen I: Human collagen I obtained from Collaborative Biomedical Products; comparison protein
degradation of 35S-labeled β-catenin (β-catenin): marginal stabilization | induction of Tcf/Lef activity (Tcf/Lef): did not activate | cyclin D1 levels (cyclin D1): no significant change
